Data on 24 compounds can be found in ChEMBL document CHEMBL3588767, “Inhibitory activities of biflavonoids against amyloid-β peptide 42 cytotoxicity in PC-12 cells” (Bioorg Med Chem Lett, 2015).

pEC50: −log10 of the molar value.

A short description of assay [1]: Neuroprotective activity against 0.1 uM amyloid beta 42-induced toxicity in rat PC12 cells assessed as cell viability after 24 hrs by MTT assay. It counts as functional, cell-based. The settings on record: PC-12, 24 h. In general terms: Formazan colour is commonly taken as a measure of viable cells.
Assay [2] can be described thus: Neuroprotective activity against 0.1 uM amyloid beta 42-induced toxicity in rat PC12 cells assessed as cell viability at 10 uM after 24 hrs by MTT assay. The assay is classed as functional, PC-12.
Assay [3] can be described thus: Neuroprotective activity against 0.1 uM amyloid beta 42-induced toxicity in rat PC12 cells assessed as cell viability at 50 uM after 24 hrs by MTT assay. The assay is classed as functional, PC-12.

As to `COc1ccc(-c2cc(=O)c3c(O)cc(OC)c(-c4cc(-c5cc(=O)c6c(O)cc(O)cc6o5)ccc4OC)c3o2)cc1` [KAYAFLAVONE], the pEC50 – broadly, the EC50 on a negative log10 scale, so that one unit is a factor of ten – in assay [1] is 5.28. Further, the Activity is 80.5% in assay [2] and 100% in assay [3]. For `COc1ccc(-c2cc(=O)c3c(O)cc(O)c(-c4cc(-c5cc(=O)c6c(O)cc(OC)cc6o5)ccc4OC)c3o2)cc1` [SCIADOPITISIN], in that order: 5.01, 83.1% and 100%. Consider `O=c1cc(-c2ccc(O)cc2)oc2cc(O)cc(O)c12` [APIGENIN], for which the Activity in assay [2] came to 41%. The same measure, in the same setting: then `COc1ccc(-c2cc(=O)c3c(O)cc(O)cc3o2)cc1-c1c(O)cc(O)c2c(=O)cc(-c3ccc(O)cc3)oc12` [BILOBETIN], with 44.7%. Still for that read-out and setting: the value for `COc1ccc(-c2cc(=O)c3c(O)cc(OC)c(-c4c(OC)cc(O)c5c(=O)cc(-c6ccc(OC)cc6)oc45)c3o2)cc1` was 46.7%; that for `COc1cc(O)c2c(=O)cc(-c3ccc(O)cc3)oc2c1-c1cc(-c2cc(=O)c3c(O)cc(O)cc3o2)ccc1O` [SOTETSUFLAVONE] was 34.2%.

In the case of `COc1ccc(-c2cc(=O)c3c(O)cc(O)cc3o2)cc1-c1c(OC)cc(O)c2c(=O)cc(-c3ccc(O)cc3)oc12`, in assay [2], the Activity was 56.5%.

For the compound `COc1cc(O)c2c(=O)cc(-c3ccc(Oc4c(OC)cc5oc(-c6ccc(O)cc6)cc(=O)c5c4O)cc3)oc2c1`, the Activity in assay [2] is recorded as 55.5%. On the same count and under the same terms, the value for `COc1ccc(-c2cc(=O)c3c(O)cc(OC)c(-c4cc(-c5cc(=O)c6c(O)cc(OC)cc6o5)ccc4OC)c3o2)cc1` was 49.9%; that for `COc1cc(O)c2c(=O)cc(-c3ccc(OC)c(-c4c(O)cc(O)c5c(=O)cc(-c6ccc(O)cc6)oc45)c3)oc2c1` [GINKGETIN] was 59.8%.

As to `O=c1cc(-c2ccc(Oc3c(O)cc4oc(-c5ccc(O)cc5)cc(=O)c4c3O)cc2)oc2cc(O)cc(O)c12` [HINOKIFLAVONE], in assay [2], the Activity was 38.7%. On the same count and under the same terms, the value for `COc1cc(O)c2c(=O)cc(-c3ccc(OC)c(-c4c(OC)cc(O)c5c(=O)cc(-c6ccc(O)cc6)oc45)c3)oc2c1` was 65.3%; that for `COc1cc2oc(-c3ccc(O)cc3)cc(=O)c2c(O)c1-c1cc(-c2cc(=O)c3c(O)cc(O)cc3o2)ccc1O` was 38.5%.

Regarding `COc1ccc(-c2cc(=O)c3c(O)cc(OC)c(-c4cc(-c5cc(=O)c6c(O)cc(O)cc6o5)ccc4O)c3o2)cc1` [7'',4'''-dimethylamentoflavone], the Activity in assay [2] worked out at 55.3%.

For the compound `O=C(O[C@@H]1Cc2c(O)cc(O)cc2O[C@@H]1c1cc(O)c(O)c(O)c1)c1cc(O)c(O)c(O)c1` [EPIGALOCATECHIN GALLATE], in assay [2], the Activity was 49.5%. The same measure, in the same setting: then `O=c1cc(-c2ccc(O)c(-c3c(O)cc(O)c4c(=O)cc(-c5ccc(O)cc5)oc34)c2)oc2cc(O)cc(O)c12` [AMENTOFLAVONE], with 37.6%.

With `COc1ccc(-c2cc(=O)c3c(O)cc(O)c(-c4cc(-c5cc(=O)c6c(O)cc(OC)cc6o5)ccc4O)c3o2)cc1` [PODOCARPUSFLAVONE B], in assay [1], the pEC50 is 4.97. Also, the Activity in assay [2] worked out at 76.4%. With `COc1cc(O)c2c(=O)cc(-c3ccc(O)c(-c4c(O)cc(O)c5c(=O)cc(-c6ccc(O)cc6)oc45)c3)oc2c1` [SEQUOIAFLAVONE], the Activity in assay [2] is 39.3%.

For the compound `COc1ccc(-c2cc(=O)c3c(O)cc(O)c(-c4cc(-c5cc(=O)c6c(O)cc(O)cc6o5)ccc4O)c3o2)cc1` [PODOCARPUSFLAVONE A], the Activity in assay [2] is reported as 49.3%. Same read-out and setting: the value for `O=c1cc(-c2ccc(O)cc2)oc2c(-c3c(O)cc(O)c4c(=O)cc(-c5ccc(O)cc5)oc34)c(O)cc(O)c12` [CUPRESSUFLAVONE] was 31.7%; that for `COc1cc(O)c2c(=O)cc(-c3ccc(O)c(-c4c(OC)cc(O)c5c(=O)cc(-c6ccc(O)cc6)oc45)c3)oc2c1` was 52.6%. Take `COc1ccc(-c2cc(=O)c3c(O)cc(OC)c(-c4cc(-c5cc(=O)c6c(O)cc(OC)cc6o5)ccc4O)c3o2)cc1` [HEVEAFLAVONE]: the Activity in assay [2] stood at 45.1%. In the case of `COc1ccc(-c2cc(=O)c3c(O)cc(O)c(-c4cc(-c5cc(=O)c6c(O)cc(O)cc6o5)ccc4OC)c3o2)cc1` [ISOGINKGETIN], in assay [1], the pEC50 was 5.29. For the same compound, the Activity in assay [2] was found to be 83.1%. For `COc1cc2oc(-c3ccc(O)cc3)cc(=O)c2c(O)c1Oc1ccc(-c2cc(=O)c3c(O)cc(O)cc3o2)cc1`, the Activity in assay [2] worked out at 65.7%.
